Reference: patent US10035971B2, “Method for treating algae” (STAMICARBON B.V., priority 2014, dated 2018)

Tests used:
[1] = system: wet algae; assay: Algal cell lysis with ionic liquid and oil extraction / transesterification; format: cell-based; conditions: for recovered oil (% of the total algal oil content): wet algae 5 g, water content 85%, cell lysis 80° C. 1 h, hexane added
[2] = in water; cited from earlier work

Q: For “1-ethyl-3-methylimidazolium ethyl sulfate [[EMIM] Ethyl Sulfate]”, which “recovered oil (% of the total algal oil content)” value [1] is on record?
A: Its value is 50-52%.

Q: With `C1CN2CCN1CC2` [Dabco, triethylenediamine] as the compound, how does the pKa water [2] read?
A: Its pKa water is 8.8.

Q: Which pKa water [2] does the source give for `CN1CCCC1` [N-methylpyrrolidine] here?
A: The pKa water was 10.5.

Q: Which pKa water [2] does the source give for `CN(C)C(=N)N(C)C` [Tetramethylguanidine (TMG), 1,1,3,3-tetramethylguanidine] here?
A: Its pKa water is 15.2.

Q: With `CC(=O)[O-].CCCCn1cc[n+](C)c1` [[BMIM] Acetate, 1-butyl-3-methylimidazolium acetate] as the compound, how does the “recovered oil (% of the total algal oil content)” value [1] read?
A: The value was 40%.

Q: For `CCCC[n+]1ccn(C)c1.[Cl-]` [[BMIM]Cl, 1-methyl-3-butylimidazolium chloride], which “Oil extraction (%) with respect the total algal oil content” value ([1]; Example 9, procedure of Example 1, 100° C. (10 atm for TMG and DBU), IL/Algae/MeOH 5:1:1.5 (5:1 for [BMIM]Cl)) is on record?
A: The value was 40-60%.

Q: What about the “recovered oil (% of the total algal oil content)” value [1] of the same compound?
A: Its value is 40-60%.
